Test results: patent US10563263B2, “Genetic polymorphisms associated with statin response and cardiovascular diseases, methods of detection and uses thereof” (CELERA CORPORATION, priority 2010, dated 2020)

Tested on: CVD (CHD or stroke)
Assay: WOSCOPS: SNP by pravastatin treatment interaction, logistic regression (synergy index), CVD endpoint
Type: in vivo, human
Conditions: for OR (SNP x pravastatin treatment interaction): Imputed, WOSCOPS pravastatin vs placebo; for OR: WOSCOPS
From the text: CARE was a secondary prevention trial and WOSCOPS was a primary prevention trial.
The CHD endpoint was defined in the analyses herein of CARE as a composite endpoint of fatal CHD, definite non-fatal MI, or revascularization, and was defined in the analyses herein of WOSCOPS as a composite endpoint of death from CHD, nonfatal MI, or revascularization. In both the CARE and WOSCOPS analyses herein, the CVD endpoint was defined as a composite endpoint of CHD or stroke. […] Revascularization, which can include percutaneous transluminal coronary angioplasty (PTCA), stent placement, and coronary artery bypass graft (CABG), are medical interventions that indicate the presence of CHD.
Cohort and case-only study designs were used to identify SNPs associated with response to statin treatment.
For each SNP, a logistic regression model having treatment status as the dependent variable and SNP as the independent predictor variable was performed, with terms for age, sex and race included in the model as covariates. The anti-log of the regression coefficient corresponding to the SNP is an estimate of the synergy index (SI) (Davis et al., “Imputing gene-treatment interactions when the genotype distribution is unknown using case-only and putative placebo analyses-a new method for the Genetics of Hypertension Associated Treatment (GenHAT) study”, Statistics in Medicine 23: (2004), pages 2413-2427). The SI is a ratio of odds ratios: for example in the CARE and WOSCOPS studies, the SI represents the factor by which the odds-ratio of statin treatment, compared with placebo, among major homozygous individuals is multiplied by in order to obtain the odds-ratio of treatment vs. placebo among heterozygous individuals; and multiplied by a second time to obtain the odds-ratio of treatment vs. placebo in minor homozygous individuals. […] In a randomized clinical trial, genotype and treatment are independent by design.

CC[C@H](C)C(=O)O[C@H]1C[C@H](O)C=C2C=C[C@H](C)[C@H](CC[C@@H](O)C[C@@H](O)CC(=O)O)[C@H]21 [Pravastatin, pravastatin]
OR (SNP x pravastatin treatment interaction) (SNP rs12820589, allele A1=G, model DOM): 1.936
OR (SNP x pravastatin treatment interaction) (SNP rs12831292, allele A1=G, model ADD): 0.6841
OR (SNP x pravastatin treatment interaction) (SNP rs12831292, allele A1=G, model DOM): 0.62
OR (SNP x pravastatin treatment interaction) (SNP rs13012636, allele A1=G, model REC): 1.901
OR (SNP x pravastatin treatment interaction) (SNP rs13038146, allele A1=C, model ADD): 1.407
OR (SNP x pravastatin treatment interaction) (SNP rs13038146, allele A1=C, model REC): 1.414
OR (SNP x pravastatin treatment interaction) (SNP rs13089860, allele A1=A, model DOM): 0.6221
OR (SNP x pravastatin treatment interaction) (SNP rs13102419, allele A1=T, model REC): 1.668
OR (synergy index), WOSCOPS, Prava vs Placebo (SNP rs13121569 (A1 G, A2 A), dom model, CVD endpoint, Caseonly): 0.78
OR (SNP x pravastatin treatment interaction) (SNP rs13194907, allele A1=A, model ADD): 1.964
OR (SNP x pravastatin treatment interaction) (SNP rs13194907, allele A1=A, model DOM): 2.136
OR (SNP x pravastatin treatment interaction) (SNP rs13195745, allele A1=A, model ADD): 1.964
OR (SNP x pravastatin treatment interaction) (SNP rs13195745, allele A1=A, model DOM): 2.136
OR (SNP x pravastatin treatment interaction) (SNP rs13265054, allele A1=T, model DOM): 0.6754
OR (SNP x pravastatin treatment interaction) (SNP rs13282131, allele A1=C, model ADD): 1.415
OR (SNP x pravastatin treatment interaction) (SNP rs13282131, allele A1=C, model REC): 1.595
OR (SNP x pravastatin treatment interaction) (SNP rs13387284, allele A1=A, model DOM): 0.5278
OR (SNP x pravastatin treatment interaction) (SNP rs13401462, allele A1=C, model DOM): 2.137
OR (SNP x pravastatin treatment interaction) (SNP rs13409045, allele A1=T, model ADD): 0.6931
OR (marker rs208025, source caseonly, pravastatin vs placebo): 1.52
OR (marker rs478859, source caseonly, pravastatin vs placebo): 1.33
OR (marker rs623400, source caseonly, pravastatin vs placebo): 0.62
OR (marker rs675163, source caseonly, pravastatin vs placebo): 0.71
OR (marker rs1536506, source caseonly, pravastatin vs placebo): 1.43
OR (marker rs1866386, source caseonly, pravastatin vs placebo): 0.81
OR (marker rs2869680, source caseonly, pravastatin vs placebo): 0.70
OR (marker rs2880563, source caseonly, pravastatin vs placebo): 1.51
OR (marker rs4251580, source caseonly, pravastatin vs placebo): 0.55
OR (marker rs4689078, source caseonly, pravastatin vs placebo): 1.45
OR (marker rs5764592, source caseonly, pravastatin vs placebo): 1.87
OR (marker rs6040760, source caseonly, pravastatin vs placebo): 1.23
OR (marker rs7623808, source caseonly, pravastatin vs placebo): 4.22
OR (marker rs7915250, source caseonly, pravastatin vs placebo): 0.81
OR (marker rs10106852, source caseonly, pravastatin vs placebo): 1.56
OR (marker rs10460737, source caseonly, pravastatin vs placebo): 0.10
OR (marker rs10817479, source caseonly, pravastatin vs placebo): 1.37
OR (marker rs12286877, source caseonly, pravastatin vs placebo): 2.30
OR (marker rs12608167, source caseonly, pravastatin vs placebo): 0.66
OR (marker rs17310169, source caseonly, pravastatin vs placebo): 0.81
OR (marker rs77638540, source caseonly, pravastatin vs placebo): 0.68
OR (rs198461 allele C DOM Imputed): 0.4755
OR (rs208757 allele G ADD Imputed): 1.353
OR (rs208757 allele G DOM Imputed): 1.453
OR (rs331555, add, Caseonly, CVD, pravastatin vs placebo): 0.77
OR (rs1076733, dom, Caseonly, CVD, pravastatin vs placebo): 0.62
OR (rs1182878, add, Caseonly, CVD, pravastatin vs placebo): 0.75
OR (rs1474396, dom, Caseonly, CVD, pravastatin vs placebo): 1.73
OR (rs1782328 allele A ADD Imputed): 0.5789
OR (rs1796337 allele T DOM Imputed): 0.5422
OR (rs1798083 allele C DOM Imputed): 0.4733
OR (rs1798085 allele T DOM Imputed): 0.4727
OR (rs1798086 allele T DOM Imputed): 0.4689
OR (rs1798089 allele C REC Imputed): 1.806
OR (rs1798090 allele C REC Imputed): 1.806
OR (rs1832222 allele G DOM Imputed): 1.351
OR (rs1838104 allele A ADD Imputed): 0.6393
OR (rs1868616 allele G ADD Imputed): 0.7123
OR (rs1874313 allele A DOM Imputed): 0.6182
